Experimental data: patent US20140271644A1, “COMBINATION/ADJUVANT THERAPY FOR WT-1-POSITIVE DISEASE” (Memorial Sloan-Kettering Cancer Center, priority 2013, published 2014)

Experiments:
BV173 cells = test: ADCC, chromium 51 release assay; type: cell-based, human; settings: imatinib 1 μM, 5 μM or 10 μM, various E:T ratios, fresh BV173 cells
Experimental: ADCC is considered to be one of the major effector mechanisms of therapeutic mAb in humans. Evaluation of efficacy, therefore, begins with in vitro experiments measuring ADCC against BV173 cell line, derived from CML in blastic crisis. Fresh BV173 cells were used for ADCC target cells. WT-1 antibody or its isotype control human IgG1 was incubated at 750 ng/ml with target cells and fresh PBMCs at different effector:target (E:T) ratio for 6 hrs. Imatinib was added at concentrations of 0, 1, 5, and 10 μM. The supernatants were harvested and the cytotoxicity was measured by standard chromium 51 release assay.

[1] = system: BV173 human leukemia cells; test: Imatinib plus ESKM in BV173 human leukemia xenograft NSG model; type: in vivo, NSG mice; settings: after 5 weeks of therapy; imatinib 50 mg/kg daily IP; antibody 100 μg twice a week
Experimental: (§1) In vivo efficacy of ESKM with TKIs was evaluated using NSG mice injected with HLA-A0201^+ leukemic cell line BV173. The protocol used for imatinib and dasatinib therapy in combination with ESKM consisted of injecting 3×10^6 cells per mouse via tail vein, luciferin imaging 6 days after injection to assess tumor engraftment, and initiation of therapy immediately after imaging on day 6. Luciferin imaging was used weekly to monitor tumor growth. The TKI is injected intraperitoneally daily (50 mg/kg for imatinib and 20-40 mg/kg for dasatinib.) The antibody is injected intravenously twice per week.
Imatinib was also administered by IP injection at 50 mg/kg daily. Therapy continued for 5 weeks (10 doses of ESKM and 34 doses of imatinib per mouse). Group A: No therapy; Group B: imatinib treatment only; Group C: ESK treatment only; Group D: combination of both imatinib daily and ESK twice weekly. Tumor growth was assessed by luminescence imaging weekly, and clinical activity was assessed daily.
This allows for the quantification of mouse tumor burden. […] (FIG. 2)

[2] = cited from earlier work
[3] = mouse, in vivo
Experimental: Three million BV173 human leukemia cells were injected IV by tail vein into NSG mice. […] Immediately after imaging on day 6, therapy was initiated with anti-WT-1 antibody ESKM 100 μg administered by intraperitoneal (IP) injection twice weekly. Dasatinib was also administered by IP injection at 40 mg/kg daily. […] Group A: No therapy; Group B: DMSO only (vehicle control); Group C: dasatinib treatment only; Group D: ESK treatment only; Group E: combination of both dasatinib daily and ESK twice weekly. […] The dose was decreased to 20 mg/kg. […] ESK antibody continued to be administered for the full 4 week treatment cycle. Tumor growth continued to be assessed by luminescence imaging weekly.
After 4 weeks of therapy, animals were imaged by fluorescent luciferin imaging, and the fluorescence was quantified using Living Image® software, quantifying mouse tumor burden.

[4] = system: BV173 human leukemia cells; test: Dasatinib plus ESKM in BV173 human leukemia xenograft NSG model; type: in vivo, NSG mice; settings: after 4 weeks of therapy; dasatinib 40 then 20 mg/kg daily IP, stopped on day 11; antibody 100 μg twice a week
Experimental: as §1

Compound | Effect of imatinib on ADCC mediated by WT-1 antibody (BV173 cells) | Tumor burden by luciferin imaging [1] | Solubility in aqueous solution [2] | Clinical condition of mice [3] | Discontinuation of therapy [3] | Tumor burden by luciferin imaging [4]
Cc1ccc(NC(=O)c2ccc(CN3CCN(C)CC3)cc2)cc1Nc1nccc(-c2cccnc2)n1 [imatinib] | does not affect | reduced tumor burden compared to control animals |  |  |  | 
Cc1nc(Nc2ncc(C(=O)Nc3c(C)cccc3Cl)s2)cc(N2CCN(CCO)CC2)n1 [dasatinib] |  |  | not soluble in aqueous solution | looked ill with significant weight loss | discontinued due to toxicity | initially had clearance of tumor, but relapsed by week 4 of therapy
